Toxic doses and inconclusive results are not listed. Rule as the data show it: active = T/C of 150% or more; inactive = T/C below 125%.
Tested on: L1210 leukemia ip in BDF1 mice, survival T/C
Assay: NCI In Vivo Anticancer Drug Screen. Data for tumor model L1210 Leukemia (intraperitoneal) in B6D2F1 (BDF1) mice
Details: endpoint: mean survival time, higher = longer survival
Procedure, shortened: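 Survival endpoint. Drug-treated group vs vehicle group, expressed as T divided by C. Tumor passaged by transplantation.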

[1] = dose: 50.0 mg/kg/injection, schedule: Q01DX009 (ip), vehicle: Klucel (hydroxypropylcellulose) (HPC)
[2] = dose: 100.0 mg/kg/injection, schedule: Q01DX009 (ip), vehicle: Klucel (hydroxypropylcellulose) (HPC)
[3] = dose: 100.0 mg/kg/injection, schedule: Q04DX003 (ip), vehicle: Klucel (hydroxypropylcellulose) (HPC)
[4] = dose: 200.0 mg/kg/injection, schedule: Q01DX009 (ip), vehicle: Klucel (hydroxypropylcellulose) (HPC)
[5] = dose: 100.0 mg/kg/injection, schedule: Q04DX002 (ip), vehicle: Klucel (hydroxypropylcellulose) (HPC)
[6] = dose: 200.0 mg/kg/injection, schedule: Q04DX002 (ip), vehicle: Klucel (hydroxypropylcellulose) (HPC)

Measured: T/C

Cc1c2cnccc2c(C)c2c1c1ccccc1n2C(C)C
inactive: dose: 37.5 mg/kg/injection, schedule: Q04DX003 (ip), vehicle: saline 100 % of control | dose: 62.5 mg/kg/injection, schedule: Q01DX009 (ip), vehicle: saline with Tween-80 110 % of control | dose: 75.0 mg/kg/injection, schedule: Q04DX003 (ip), vehicle: saline 101 % of control | dose: 150.0 mg/kg/injection, schedule: Q04DX003 (ip), vehicle: saline 104 % of control | dose: 300.0 mg/kg/injection, schedule: Q04DX003 (ip), vehicle: saline 124 % of control

CCOC(=O)C(NC=O)C(=O)OCC
inactive: dose: 25.0 mg/kg/injection, schedule: Q01DX009 (ip), vehicle: saline 101 % of control | dose: 50.0 mg/kg/injection, schedule: Q01DX009 (ip), vehicle: saline 101 % of control | dose: 100.0 mg/kg/injection, schedule: Q01DX009 (ip), vehicle: saline 101 % of control | dose: 200.0 mg/kg/injection, schedule: Q01DX009 (ip), vehicle: saline 103 % of control | dose: 400.0 mg/kg/injection, schedule: Q01DX009 (ip), vehicle: saline 98 % of control

O=C(O)c1c(Cl)c(Cl)c(Cl)c(C(=O)O)c1Cl
inactive: [1] 98 % of control | [2] 97 % of control | [3] 93 % of control | [4] 98 % of control | dose: 200.0 mg/kg/injection, schedule: Q04DX003 (ip), vehicle: Klucel (hydroxypropylcellulose) (HPC) 91 % of control

Cc1nnc(NS(=O)(=O)c2ccc(N=Nc3c(N)n(C)c(=O)n(C)c3=O)cc2)s1
inactive: dose: 100.0 mg/kg/injection, schedule: Q01DX001 (ip), vehicle: carboxymethylcellulose (CMC) 101 % of control | dose: 200.0 mg/kg/injection, schedule: Q01DX001 (ip), vehicle: carboxymethylcellulose (CMC) 95 % of control | dose: 400.0 mg/kg/injection, schedule: Q01DX001 (ip), vehicle: carboxymethylcellulose (CMC) 89 % of control

C=CCc1cc2c(C)cc(=O)oc2c(C)c1OC(C)=O
inactive: dose: 100.0 mg/kg/injection, schedule: Q01DX009 (ip), vehicle: gum acacia 100 % of control | dose: 100.0 mg/kg/injection, schedule: Q04DX003 (ip), vehicle: gum acacia 98 % of control | dose: 200.0 mg/kg/injection, schedule: Q01DX009 (ip), vehicle: gum acacia 96 % of control | dose: 200.0 mg/kg/injection, schedule: Q04DX003 (ip), vehicle: gum acacia 103 % of control | dose: 400.0 mg/kg/injection, schedule: Q01DX009 (ip), vehicle: gum acacia 91 % of control | dose: 400.0 mg/kg/injection, schedule: Q04DX003 (ip), vehicle: gum acacia 90 % of control

O=C(Nc1ccccc1Cl)Oc1ccccc1-c1ccccc1
inactive: [5] 106 % of control | [6] 113 % of control | dose: 400.0 mg/kg/injection, schedule: Q04DX002 (ip), vehicle: Klucel (hydroxypropylcellulose) (HPC) 120 % of control

CCOC(=O)Cc1nc2ccccc2[nH]c1=O
inactive: dose: 50.0 mg/kg/injection, schedule: Q04DX002 (ip), vehicle: Klucel (hydroxypropylcellulose) (HPC) 107 % of control | [5] 96 % of control | [6] 96 % of control

CCCCCC(C)NCCOC(=O)c1ccc([N+](=O)[O-])cc1 (centres undefined)
inactive: dose: 75.0 mg/kg/injection, schedule: Q01DX001 (ip), vehicle: other 103 % of control | dose: 150.0 mg/kg/injection, schedule: Q01DX001 (ip), vehicle: other 103 % of control | dose: 300.0 mg/kg/injection, schedule: Q01DX001 (ip), vehicle: other 106 % of control

CCCC(O)(CCC)CC(=O)OCC
inactive: dose: 200.0 mg/kg/injection, schedule: Q04DX003 (ip), vehicle: saline sonified 106 % of control | dose: 400.0 mg/kg/injection, schedule: Q04DX003 (ip), vehicle: saline sonified 90 % of control

CN(C)/N=N/c1ncn(C2CCCO2)c1C(N)=O (centres undefined)
inactive: dose: 200.0 mg/kg/injection, schedule: Q01DX005 (ip), vehicle: saline 115 % of control

COC1CCC2(C)C(=CCC3C2CCC2(C)C(C(C)CCCC(C)C)CCC32)C1 (centres undefined)
inactive: dose: 100.0 mg/kg/injection, schedule: Q01DX001 (ip), vehicle: Klucel (hydroxypropylcellulose) (HPC) 97 % of control | dose: 200.0 mg/kg/injection, schedule: Q01DX001 (ip), vehicle: Klucel (hydroxypropylcellulose) (HPC) 94 % of control | dose: 400.0 mg/kg/injection, schedule: Q01DX001 (ip), vehicle: Klucel (hydroxypropylcellulose) (HPC) 94 % of control

COc1ccc(C=NCCN=Cc2ccc(OC)cc2)cc1
inactive: [1] 88 % of control | [2] 106 % of control | [3] 86 % of control | [4] 104 % of control | dose: 400.0 mg/kg/injection, schedule: Q04DX003 (ip), vehicle: Klucel (hydroxypropylcellulose) (HPC) 90 % of control

Source: PubChem BioAssay AID248 (DTP/NCI, 2004)
